Measured values: PubChem BioAssay AID1963843 (Molecular Pharmacology Branch, DTP, NCI, 2024)

Tested on: 616215-338-R-J1-PDC complex spheroid viability
Experiment: Anticancer human tumor 616215-338-R-J1-PDC patient-derived colon adenocarcinoma cell line growth inhibition [POLQ]
Conditions: for IC50: curve of first compound; for viability, T/C: stronger effect = lower value
Protocol: Multicellular complex tumor spheroid response to Polymerase (POL) inhibitors (novobiocin, ART-558, RP6685) in combination with a variety of drugs and investigational agents in selected tumor cell lines
The POL inhibitors (novobiocin, ART-558, and RP6685) were evaluated both individually and in combination with standard of care and investigational anticancer small molecules within a complex spheroid model of solid tumors. . Complex spheroids include a stromal component modeled by human endothelial cells (HUVEC) and fibroblasts modeled by human mesenchymal stem cells (MSCs). The concentration ranges selected for each drug and investigational agent were based upon clinically achievable concentrations if the clinical Cmax of the agent was known.
Compounds. The drugs and investigational agents: novobiocin (NSC847541), ART-558 (NSC835418), RP-6685 (NSC848927), peposertib (NSC802822), ceralasertib (NSC780249), elimusertib (NSC800525), camonsertib (NSC841442), AZD-1390 (NSC803789), olaparib (NSC753686), talazoparib (NSC767125), rucaparib (NSC756644), sotorasib (NSC818433), MRTX-1133 (NSC836407), SN-38 (NSC673596), topotecan (NSC609699), epotoside (NSC141540), doxorubicin (NSC123127), gemcitabine (NSC613327), 5-fluorouracil (NSC19893), paclitaxel (NSC125973), vemurafenib (NSC761431), MSA-2 (NSC828583), SN-011 (NSC837082), adavosertib (NSC754352), prexasertib (NSC758257), carboplatin (NSC241240) and oxaliplatin (NSC266046), were obtained from the National Cancer Institute (NCI) Developmental Therapeutics Program Chemical Repository (21). The FDA-approved anticancer drug set is available from the Developmental Therapeutics Program at https://dtp.cancer.gov/organization/dscb/obtaining/. […] The stock solutions were prepared in dimethyl sulfoxide (DMSO, Sigma-Aldrich, St. Louis, MO, cat. D2650), except for the platinum compounds which were prepared in saline (Quality Biological, Gaithersburg, MD, cat. 114-055-101), at 800-fold the tested concentration and stored at -70 degrees C prior to their use. All drugs and investigational agents were tested over a range starting from a high concentration at or near the clinical Cmax and decreasing in half-log increments. If the clinical Cmax for an agent had not been determined, the highest concentration tested was 10 microM, except for SN-38, which was tested at a high concentration of 1 microM.
Cell Culture. All cells were maintained in an incubator at 37 degrees C and 5% CO2 with 95% humidity. The PDC lines were cultured according to standard operating procedures established by the NCI PDMR (https://pdmr.cancer.gov). Table 3 of the manuscript, lists the cell lines along with the number of the three cell types plated to form the mct-spheroids and media for tumor cell growth. After thawing, all PDC lines, except 997537-175-T-J1-PDC and 415267-285-R-J2-PDC, were cultured in Matrigel-coated flasks prepared with a working solution of 1X Ham's F-12 nutrient mix, without supplementation (Thermo Fisher Scientific, cat. 11765054), 100 U/mL penicillin-streptomycin (Thermo Fisher Scientific, cat. 15140122), and 2.5% Matrigel (Corning Inc., Corning, NY, cat. 354248) for the first three passages. The two PDC lines 997537-175-T-J1-PDC and 415267-285-R-J2-PDC were cultured on uncoated flasks. The 857933-349-R-J2-PDC line was cultured in 6C/Colon 1B media containing advanced DMEM/F-12 (Thermo Fisher Scientific, cat. 12634028), 10 mM HEPES (Thermo Fisher Scientific, cat. 15630080), 1X GlutaMAX supplement (Thermo Fisher Scientific, cat. 35050061), 0.1 mg/mL primocin (InvivoGen, San Diego, CA, cat. ant-pm-2), 10% defined fetal bovine serum, heat inactivated (HyClone Laboratories Inc., Logan, UT, cat. SH30070.03HI), 50% L-WRN conditioned media (ATCC, cat. CRL-3276), 1.25 mM N-Acetyl-L-cysteine (Sigma-Aldrich, cat. A9165), 10 mM nicotinamide (Sigma-Aldrich, cat. N0636), 1X B-27 supplement (Thermo Fisher Scientific, cat. 17504044), 1X N-2 supplement (Thermo Fisher Scientific, cat. […]

[1] = second compound 0.0316 µM, first compound 0.0316 µM
[2] = second compound 0.0316 µM, first compound 0.1 µM
[3] = second compound 0.0316 µM, first compound 0.316 µM
[4] = second compound 0.0316 µM, first compound 1 µM
[5] = second compound 0.0316 µM, first compound 3.16 µM
[6] = second compound 0.0316 µM, first compound 10 µM
[7] = second compound 0.1 µM, first compound 0.0316 µM
[8] = second compound 0.1 µM, first compound 0.1 µM
[9] = second compound 0.1 µM, first compound 0.316 µM
[10] = second compound 0.1 µM, first compound 1 µM
[11] = second compound 0.1 µM, first compound 3.16 µM
[12] = second compound 0.1 µM, first compound 10 µM
[13] = second compound 0.316 µM, first compound 0.0316 µM
[14] = second compound 0.316 µM, first compound 0.1 µM
[15] = second compound 0.316 µM, first compound 0.316 µM
[16] = second compound 0.316 µM, first compound 1 µM
[17] = second compound 0.316 µM, first compound 3.16 µM
[18] = second compound 0.316 µM, first compound 10 µM
[19] = second compound 1 µM, first compound 0.0316 µM
[20] = second compound 1 µM, first compound 0.1 µM
[21] = second compound 1 µM, first compound 0.316 µM
[22] = second compound 1 µM, first compound 1 µM
[23] = second compound 1 µM, first compound 3.16 µM
[24] = second compound 1 µM, first compound 10 µM
[25] = second compound 3.16 µM, first compound 0.0316 µM
[26] = second compound 3.16 µM, first compound 0.1 µM
[27] = second compound 3.16 µM, first compound 0.316 µM
[28] = second compound 3.16 µM, first compound 1 µM
[29] = second compound 3.16 µM, first compound 3.16 µM
[30] = second compound 3.16 µM, first compound 10 µM
[31] = second compound 10 µM, first compound 0.0316 µM
[32] = second compound 10 µM, first compound 0.1 µM
[33] = second compound 10 µM, first compound 0.316 µM
[34] = second compound 10 µM, first compound 1 µM
[35] = second compound 10 µM, first compound 3.16 µM
[36] = second compound 10 µM, first compound 10 µM
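Note: spheroids exposed to compounds for one week before readout.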
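Throughout, for viability, T/C: percent viability relative to DMSO vehicle wells taken as 100%.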

For `CCCS(=O)(=O)Nc1ccc(F)c(C(=O)c2c[nH]c3ncc(-c4ccc(Cl)cc4)cc23)c1F` + COC1C(OC(N)=O)C(O)C(Oc2ccc3c(O)c(NC(=O)c4ccc(O)c(CC=C(C)C)c4)c(=O)oc3c2C)OC1(C)C, the IC50 (second compound 0.0316 µM) was 6.22 µM, the IC50 (second compound 0.1 µM) was 5.9 µM and the IC50 (second compound 0.316 µM) was 5.7 µM. It also gave an IC50 (second compound 1 µM) of 5.66 µM, an IC50 (second compound 3.16 µM) of 6.01 µM and an IC50 (second compound 10 µM) of 5.82 µM. The viability, T/C [1] was 99.9%, the viability, T/C [2] was 99.7% and the viability, T/C [3] was 100%. It also gave a viability, T/C [4] of 108%, a viability, T/C [5] of 97.1% and a viability, T/C [6] of 16.8%. The viability, T/C [7] was 98.2%, the viability, T/C [8] was 116% and the viability, T/C [9] was 102%. The viability, T/C [10] was 107%, the viability, T/C [11] was 91.1% and the viability, T/C [12] was 15.2%. The viability, T/C [13] was 109%, the viability, T/C [14] was 113% and the viability, T/C [15] was 95.8%. It also gave a viability, T/C [16] of 99.7%, a viability, T/C [17] of 83.8% and a viability, T/C [18] of 18.9%. It also gave a viability, T/C [19] of 113%, a viability, T/C [20] of 103% and a viability, T/C [21] of 96.7%. For the same compound, the viability, T/C [22] was 105%, the viability, T/C [23] was 86.4% and the viability, T/C [24] was 14.1%. The viability, T/C [25] was 96.6%, the viability, T/C [26] was 99.7% and the viability, T/C [27] was 98.1%. For the same compound, the viability, T/C [28] was 107%, the viability, T/C [29] was 91.3% and the viability, T/C [30] was 16.9%. For the same compound, the viability, T/C [31] was 106%, the viability, T/C [32] was 97.8% and the viability, T/C [33] was 104%. The viability, T/C [34] was 93%, the viability, T/C [35] was 89.9% and the viability, T/C [36] was 15.8%.
With `COc1ccc([C@@H](O)c2cc(-c3ncnc4cc(N5CCOCC5)ccc34)c(F)cc2Cl)nn1` + COC1C(OC(N)=O)C(O)C(Oc2ccc3c(O)c(NC(=O)c4ccc(O)c(CC=C(C)C)c4)c(=O)oc3c2C)OC1(C)C the IC50 (second compound 0.0316 µM) was over 10 µM, the IC50 (second compound 0.1 µM) was over 10 µM and the IC50 (second compound 0.316 µM) was over 10 µM. It also gave an IC50 (second compound 1 µM) of over 10 µM, an IC50 (second compound 3.16 µM) of over 10 µM and an IC50 (second compound 10 µM) of over 10 µM. It also gave a viability, T/C [1] of 109%, a viability, T/C [2] of 105% and a viability, T/C [3] of 110%. The viability, T/C [4] was 99.4%, the viability, T/C [5] was 105% and the viability, T/C [6] was 76.1%. It also gave a viability, T/C [7] of 109%, a viability, T/C [8] of 99% and a viability, T/C [9] of 109%. The viability, T/C [10] was 109%, the viability, T/C [11] was 113% and the viability, T/C [12] was 73.5%. For the same compound, the viability, T/C [13] was 107%, the viability, T/C [14] was 101% and the viability, T/C [15] was 108%. It also gave a viability, T/C [16] of 100%, a viability, T/C [17] of 114% and a viability, T/C [18] of 77.7%. For the same compound, the viability, T/C [19] was 96.7%, the viability, T/C [20] was 101% and the viability, T/C [21] was 116%. The viability, T/C [22] was 117%, the viability, T/C [23] was 110% and the viability, T/C [24] was 66.3%. It also gave a viability, T/C [25] of 95.7%, a viability, T/C [26] of 104% and a viability, T/C [27] of 100%. The viability, T/C [28] was 119%, the viability, T/C [29] was 108% and the viability, T/C [30] was 69.7%. It also gave a viability, T/C [31] of 104%, a viability, T/C [32] of 94.2% and a viability, T/C [33] of 111%. It also gave a viability, T/C [34] of 107%, a viability, T/C [35] of 110% and a viability, T/C [36] of 66.5%.
